The values that follow come from paper PMC2607046 (Journal of medicinal chemistry, 2008).

One experiment concerns the target dopamine D3 receptor (Rattus norvegicus, UniProt P19020). Type of experiment: binding.
A further experiment deals with dopamine D2L receptor (Rattus norvegicus, UniProt P61169). In kind it is binding.
[1] abbreviates: 35c (spacer length 4) relative to 35a (spacer length 2).

Sequence of dopamine D3 receptor (P19020 whole entry): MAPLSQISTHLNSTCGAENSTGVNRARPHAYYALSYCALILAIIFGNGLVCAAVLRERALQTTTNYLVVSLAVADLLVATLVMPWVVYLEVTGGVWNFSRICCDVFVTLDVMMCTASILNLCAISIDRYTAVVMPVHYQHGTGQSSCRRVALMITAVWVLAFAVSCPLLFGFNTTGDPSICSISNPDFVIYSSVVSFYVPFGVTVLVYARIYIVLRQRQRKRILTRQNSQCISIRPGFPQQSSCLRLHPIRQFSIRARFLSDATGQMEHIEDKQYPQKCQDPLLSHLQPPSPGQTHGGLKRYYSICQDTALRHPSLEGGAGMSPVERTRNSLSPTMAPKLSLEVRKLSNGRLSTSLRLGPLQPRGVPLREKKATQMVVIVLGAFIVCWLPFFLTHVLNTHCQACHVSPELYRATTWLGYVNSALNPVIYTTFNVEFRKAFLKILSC
Sequence of dopamine D2L receptor (P61169 whole entry): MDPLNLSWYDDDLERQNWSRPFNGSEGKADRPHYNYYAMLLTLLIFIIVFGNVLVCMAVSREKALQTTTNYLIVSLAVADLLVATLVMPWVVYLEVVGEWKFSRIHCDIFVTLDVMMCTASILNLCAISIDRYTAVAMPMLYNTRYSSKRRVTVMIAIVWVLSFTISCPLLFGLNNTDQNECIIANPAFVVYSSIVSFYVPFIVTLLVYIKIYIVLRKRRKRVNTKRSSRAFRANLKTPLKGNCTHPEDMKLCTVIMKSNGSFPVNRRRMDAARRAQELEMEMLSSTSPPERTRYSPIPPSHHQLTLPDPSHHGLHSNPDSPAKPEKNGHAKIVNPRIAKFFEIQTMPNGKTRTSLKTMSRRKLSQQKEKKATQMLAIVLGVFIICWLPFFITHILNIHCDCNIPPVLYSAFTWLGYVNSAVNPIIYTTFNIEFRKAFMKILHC

Turning to `Oc1cccc2c1CC[C@H]1[C@H]2CCCN1CCN1CCN(c2ccccc2)CC1` (racemic) [(±)-8, (±)-trans-4-(2-(4-Phenylpiperazin-1-yl)ethyl)-1,2,3,4,4a,5,6,10b-octahydrobenzo[f]-quinolin-7-ol], the affinity at dopamine D3 receptor corresponds to a Ki of 14.9 ± 4.3 nM.

`Oc1ccc2c(c1)C[C@H]1[C@@H](CCCN1CCCCN1CCN(c3ccccc3)CC1)C2` (racemic) [(±)-35c, (±)-trans-1-[4-(4-Phenylpiperazin-1-yl)butyl]-1,2,3,4,4a,5,10,10a-octahydrobenzo-[g]quinolin-8-ol]: at dopamine D3 receptor (setting [1]), the “gain in affinity for D3 receptor” value is listed as ~ 3 fold. Further, on dopamine D2L receptor (setting [1]), the “gain in affinity for D2 receptor” value is on record as ~ 9 fold.

Take `CCCN(CCN1CCN(c2ccccc2)CC1)[C@H]1CCc2c(O)cccc2C1` [(−)-7]: the “difference in inhibition constants between enantiomers, D2L receptor” value at dopamine D2L receptor ((−)-7 versus its enantiomer (+)-7) is ~ 9 fold.
